Earlier results, collected in patent US11932595B2, “VDR-silent vitamin D derivative as inhibitors of SREBP and pharmaceutical use thereof” (KYOTO UNIVERSITY, priority 2020, dated 2024).

Test system: SREBP-responsive genes
Conditions: low μM dose, cultured cells; cited from earlier work

In the case of C=C1CC[C@H](O)C/C1=C/C=C1\CCC[C@]2(C)[C@@H]([C@H](C)CCCC(C)(C)O)CC[C@@H]12 [25(OH)D3, 25-hydroxyvitamin D3, reference compound], the cellular lipogenesis is listed as “inhibits cellular lipogenesis”.
